Where two headings read alike, the source gives them in different places.
Experiments:
[1] = biological target: Src kinase (Homo sapiens, UniProt P12931); conditions: cited from earlier work
[2] = tested on: P38MAP kinase; conditions: cited from earlier work
[3] = animal disease models; cited from earlier work
[4] = tested on: NETosis in Neutrophils (H3R8 citrullinated nucleosomes); assay: NETosis quantified by release of H3R8 citrullinated nucleosomes from stimulated neutrophils; format: cell-based, human; conditions: for citrullinated nucleosomes: 4 hours
[5] = tested on: ACE2; conditions: 6 hrs
Protocol: (§1) LNCaP (prostate) and A549 (Androgen receptor positive, human alveolar carcinoma-derived cell line with type II pneumonocyte properties) cells were seeded in 12-well plates (2×10^5 cells per well) in phenol red free RPMI-1640 and DMEM media (Lonza), supplemented with 5% and 2% double charcoal stripped FCS (First Link UK) respectively, and 2 mM I-glutamine, 100 units/ml penicillin and […] streptomycin (Sigma). Charcoal stripping was required to remove residual traces of hormones (Sedelaar et al, (2009)). Cells were treated with 0-100 nM dihydrotestosterone (DHT, Sigma) for 6 hrs. RNA was extracted using TRIzol (Thermo Fisher Scientific) and reverse transcribed (LunaScript RT Supermix Kit, NEB). TMPRSS2 and ACE2 expression was quantified using qPCR (LightCycler 96, Roche) and the data normalized to an internal control (L19).

[6] = tested on: TMPRSS2; conditions: 6 hrs; for relative expression of TMPRSS2: LNCaP
Protocol: as §1

[7] = tested on: TMPRSS2; format: cell-based, human; conditions: for TMPRSS2 protein expression: relative to non-DHT stimulated control
Protocol: (§2) LNCaP and A549 cells were seeded at a density of 1×10^6 in 6-well plates and incubated for 72 hours in phenol red free RPM1-1640 and DMEM media (Lonza), supplemented with 5% and 2% double charcoal stripped FCS (First Link UK) respectively, and 2 mM I-glutamine, 100 units/ml penicillin and […] streptomycin (Sigma). Cells were treated with 100 ng/ml Epithelial Growth Factor (EGF, Sigma) or 1 nM DHT (dihydrotestosterone, Sigma) ±SA Inhibitor for 72 hrs. Cells were harvested and proteins separated using SDS-PAGE. Blots were probed with antibodies specific for TMPRSS2 (ab92323, Abcam) and α-tubulin (B-5-1-2, Sigma). Protein levels were visualized using a chemiluminescence imaging system (Fusion FX, Vilber). Densitometry was performed using Image J and TMPRSS2 levels normalised to the internal control (Tubulin).

[8] = tested on: TMPRSS2; format: cell-based, human; conditions: for TMPRSS2 protein expression: relative to non-DHT stimulated control; remark: listed apart in the source
Protocol: as §2

[9] = tested on: Neutrophils (NETosis); format: cell-based, human
Protocol: Neutrophils, isolated as described in Example 4 (or by equivalent methodology as known in the art, for example, Ficoll Density gradient and dextran sedimentation followed by Red blood cell lysis with hypertonic solution) are resuspended in phenol red free RPMI 1640 media at a density of 2×10^6 cells per milliliter and incubated for five minutes in the dark at room temperature with NUCLEAR-ID Red (membrane impermeable) DNA dye to stain nuclei (1 ml/1.5 ml of cell suspension; Enzo Life Sciences). Cells are washed three times to remove free Dye by centrifuging at 2400 RFI for 5 min to pellet the cells and replacing supernatant with 1 ml fresh phenol red free RPMI 1640 media. […]
Neutrophils are imaged within 10 min of plating using phase contrast, red (800-ms exposure), and green (400-ms exposure) channels in an IncuCyte ZOOM platform, housed inside an incubator at 37° C. with 5% CO2. […] The Number of neutrophils is then calculated as the average red count for the three images per well and the Number of green cells calculated as the average green count. The percentage of neutrophils undergoing NETosis is calculated as the average green count divide by the average red count at each time point measured.

[10] = tested on: TMPRSS2; assay: TMPRSS2 protein levels in A549 in full media (SDS-PAGE blot, densitometry); format: cell-based, human; conditions: A549, full media (10% FCS), 72 hrs
Protocol: A549 were seeded in 6-well plates at a density of 1×10^6 per well. Cells were incubated in DMEM media (Lonza), supplemented with 10% FCS (HyClone) and 2 mM !-glutamine, 100 units/ml penicillin and 100 mg/ml streptomycin (Sigma). […] Cells were treated with 0-1 μM SA Inhibitor (SEQ ID NO: 2) or 10 μM Enzalutamide (ENZA, Sigma) for 72 hrs. Cells were harvested and proteins separated using SDS-PAGE. Blots were probed with antibodies specific for TMPRSS2 (ab92323, Abcam) and α-tubulin (B-5-1-2, Sigma). Protein levels were visualized using a chemiluminescence imaging system (Fusion FX, Vilber). Densitometry was performed using Image J and TMPRSS2 levels normalized to the internal control (Tubulin).

[11] = tested on: Neutrophils (NETosis); assay: Live cell imaging of IL6 triggered NETosis (Example 6); format: cell-based, human
Protocol: In a similar experiment to that described in Example 5, IL6 (Merck, Product Number H7416-10UG) is used to activate NETosis in response to LPS using a similar checkerboard configuration as shown in Table 4 (working IL6 concentrations 0, 10, 50 and 100 ng/mL).

[12] = tested on: Neutrophils (NETosis); assay: Live cell imaging of IL8 triggered NETosis (Example 7); format: cell-based, human
Protocol: In a similar experiment to that described in Example 5, IL8 (Merck, Product Number 11645-10UG) is used to activate NETosis in response to LPS using a similar checkerboard configuration as shown in Table 4 (working IL6 concentrations 0, 1, 10 and 100 nM).

[13] = tested on: COVID-19 patient derived neutrophils (NETosis); assay: Live cell imaging of NETosis in COVID-19 patient derived neutrophils (Example 8); format: cell-based, human; conditions: neutrophils from a SARSCoV-2 patient in intensive care
[14] = tested on: Staphylococcus aureus infection; assay: Patient case, bacterial infection with septic shock (Example 10); format: in vivo, human; conditions: 4 mg/kg sub-cutaneous once daily, antibiotics also administered, after a few days
Protocol: A patient is seen in the Emergency Room. The patient is running a temperature of 102° F. with a heart rate exceeding 90 beats/minute and rapid breathing. Septic shock is confirmed based on the requirement for vasopresser administration to maintain a mean arterial pressure of 65 mmHg and serum lactate level over 2 mmol/L. The patient is noted to be suffering from impaired kidney function. […] A Staphylococcus aureus infection is confirmed, and antibiotics administered. […] The peptide is continued to be administered once daily to the patient until the patient is recovered.

[15] = Patient case, sterile inflammatory response following trauma (Example 11); format: in vivo, human; conditions: 4 mg/kg sub-cutaneous once daily, post traumatic sepsis, after a few days
Excerpt: The patient is admitted to an intensive care unit and placed in an induced coma. […] The patients' cultures fail to reveal a bacterial infection. After a few days of once daily administration of the peptide, markers of Systematic Inflammatory Response Syndrome (SIRS), including temperature, heart rate and breathing rate improve. The peptide is continued to be administered until SIRS markers have returned to normal.

[16] = tested on: SARS-COV-2 infection; assay: Patient case, standalone SA inhibitor to reduce viral load (Example 12); format: in vivo, human; conditions: 4 mg/kg once daily sub-cutaneous, after a few days
Excerpt: A patient is brought into the hospital suffering from respiratory flu like symptoms. A blood sample is taken from the patient, who is confirmed by PCR analysis of viral RNA to have a SARS-COV-2 infection. […] Administration of the peptide continues until the patient is confirmed to be virus free by PCR.

[17] = tested on: COVID-19 virus infection; assay: Patient case, standalone SA inhibitor, viral load and NETosis (Example 13); format: in vivo, human; conditions: 4 mg/kg once daily sub-cutaneous
[18] = Patient case, flare up of Chron's disease, dry powder inhaler (second Example 14); format: in vivo, human; conditions: one metered dose (1 mg/kg) each morning, after eight days
Protocol: […] […] The patient is advised to take one metered dose (1 mg/kg) each morning until symptoms abate.

[19] = tested on: NETosis in Neutrophils (H3.1 nucleosomes); assay: NETosis quantified by release of H3.1 nucleosomes from stimulated neutrophils; conditions: 4 hours
Protocol: The ability of SA Inhibitor to reduce NETosis in Neutrophils stimulated by lipopolysaccharide (LPS, Sigma Aldrich, Product Number L4391-1MG) alone or in combination with Epidermal growth factor (Sigma Aldrich, Product Number SRP3027-500UG) was compared to the efficacy of a Src kinase Inhibitor (PP2, Sigma Aldrich, Product Number P0042-5MG) and a PAD4 inhibitor (GSK484, Cambridge Bioscience UK, Product Number CAY17488-1 mg) which is known to down regulate NETosis by preventing citrullination of histone proteins. […]
Tube-2 was placed into the magnet and after 10 minutes incubation the clear fraction (enriched cell suspension) collected by single pipette and transferred into a fresh 50 ml conical falcon tube (Tube-3) which was placed back into the magnet for a final, third separation. The clear fraction, containing purified, isolated neutrophils was transferred into a fresh 50 ml conical falcon tube (Tube-4) and the neutrophil cell Number, % viability and yield determined by cell counting and Trypan blue exclusion. […]

Chain of Src kinase (P12931 whole entry): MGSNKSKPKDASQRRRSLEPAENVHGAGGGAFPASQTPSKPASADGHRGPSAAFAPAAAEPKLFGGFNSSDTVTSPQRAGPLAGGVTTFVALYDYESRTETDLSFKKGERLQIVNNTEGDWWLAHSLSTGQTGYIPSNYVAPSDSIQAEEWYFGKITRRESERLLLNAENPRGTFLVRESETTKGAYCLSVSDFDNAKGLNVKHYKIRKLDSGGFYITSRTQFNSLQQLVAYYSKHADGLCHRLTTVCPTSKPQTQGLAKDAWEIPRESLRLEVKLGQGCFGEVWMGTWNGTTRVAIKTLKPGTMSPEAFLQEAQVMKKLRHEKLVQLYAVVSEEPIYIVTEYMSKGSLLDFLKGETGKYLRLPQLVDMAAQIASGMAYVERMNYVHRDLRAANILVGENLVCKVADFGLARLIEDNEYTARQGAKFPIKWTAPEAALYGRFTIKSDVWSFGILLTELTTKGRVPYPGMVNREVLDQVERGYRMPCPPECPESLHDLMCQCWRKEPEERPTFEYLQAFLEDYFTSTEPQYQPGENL

For `O=C(O)c1cccnc1` [Niacin], the Src kinase activity [1] is given as “inhibited”, the P38MAP kinase activity [2] is given as “inhibited” and the “chemically induced lung fibrosis” value [3] is given as “reduced”.
In the case of `COc1cc(C(=O)N2CC[C@@H](O)[C@@H](N)C2)cc2nc(-c3cc4ccccc4n3CC3CC3)n(C)c12` [PAD4i, reference compound], the “suppression of NETosis by citrullinated nucleosome marker” value ([4]; LPS or LPS and EGF (FIG. 4C, 4D), inhibitor 0.1-10 uM) is reported as “dose response reduction in citrullinated nucleosomes levels”.
For `C[C@]12CCC(=O)C[C@@H]1CC[C@@H]1[C@@H]2CC[C@]2(C)[C@@H](O)CC[C@@H]12` [dihydrotestosterone], the “relative expression of ACE2” value ([5]; A549, 0-100 nM dihydrotestosterone) was “slight negative correlation with dihydrotestosterone concentration”, the “expression of ACE2, dose response to stimulation” value ([5]; LNCaP, 0-100 nM dihydrotestosterone) was “TMPRSS2, but not ACE2, showed a dose response” and the TMPRSS2 expression increase ([6]; A549, 1 nM dihydrotestosterone, compared to cells grown in the absence of dihydrotestosterone) was “over 2 ×”. The “relative expression of TMPRSS2” value ([6]; 0.1 nM dihydrotestosterone, compared to cells grown in the absence of dihydrotestosterone) was “approximately 3 ×”, the “relative expression of TMPRSS2” value ([6]; 10 nM dihydrotestosterone, compared to the control) was 6 × and the TMPRSS2 relative expression [7] was 168%. The TMPRSS2 relative expression [8] was 120.9% and the “level of NETosis (percentage of neutrophils undergoing NETosis)” value [9] was “increased with increasing concentrations of dihydrotestosterone”.
In the case of `CNC(=O)c1ccc(N2C(=S)N(c3ccc(C#N)c(C(F)(F)F)c3)C(=O)C2(C)C)cc1F` [enzalutamide, Enzalutamide, reference compound], the “expression of TMPRSS2 protein” value ([10]; 10 μM Enzalutamide) is reported as “did not achieve down regulation”.
For “Ac-Pro-Pro-Pro-His-Pro-His-Ala-Arg-Ile-Lys-NH2 (Ac-PPPHPHARIK-NH2) [SA Inhibitor]”, the “expression of TMPRSS2 protein” value ([10]; 0-1 μM SA Inhibitor) was “decreased expression up to 10 nM SA Inhibitor followed by a progressive increase up to 1 μM”, the “effect on EGF suppression of TMPRSS2 expression” value ([7]; EGF alone and with DHT, cell line not specified (LNCaP and A549 tested)) was “reversed this inhibitory effect” and the TMPRSS2 protein expression ([7]; LNCaP, SA Inhibitor in the absence of DHT stimulation, 72 hrs) was 58.7%. For the same compound, the TMPRSS2 protein expression ([7]; LNCaP, SA Inhibitor with DHT stimulation (1 nM), 72 hrs) was 60.4%, the TMPRSS2 protein expression ([8]; A549, SA Inhibitor in the absence of DHT stimulation, 72 hrs) was 77.6% and the TMPRSS2 protein expression ([8]; A549, SA Inhibitor with DHT stimulation (1 nM), 72 hrs) was 70.2%. It also gave a citrullinated nucleosomes ([4]; LPS trigger, 0.1 uM SA Inhibitor, LPS alone 158 ng/mL) of 126.5 ng/mL, a citrullinated nucleosomes ([4]; LPS trigger, 10 uM SA Inhibitor, LPS alone 158 ng/mL) of 66.6 ng/mL and a citrullinated nucleosomes ([4]; combined LPS and EGF, 0.1 uM SA Inhibitor, without inhibitor 208.5 ng/mL) of 111.1 ng/mL. For the same compound, the “effect on DHT increased NETosis” value ([9]; 20 ug/mL LPS trigger plus DHT, SA Inhibitor 1 nM-1 mM, 30 minutes preincubation) was “This increase is reversed”, the “effect on IL6 increased NETosis” value ([11]; LPS trigger plus IL6, SA Inhibitor checkerboard as Table 4) was “This increase is reversed” and the “effect on IL8 increased NETosis” value ([12]; LPS trigger plus IL8, SA Inhibitor checkerboard as Table 4) was “This increase is reversed”. For the same compound, the “level of NETosis” value [13] was “shown to decrease in the treated neutrophils”, the kidney function [14] was “returns to normal” and the “markers of SIRS (temperature, heart rate, breathing rate)” value [14] was “improve”. For the same compound, the “markers of SIRS (temperature, heart rate, breathing rate)” value [15] was “improve”, the “viral load as determined by PCR” value [16] was “lower than what would have been expected in the absence of the administration of the peptide” and the “lung function / SpO2” value [17] was “improved lung function with a higher measured SpO2 level”. For the same compound, the “viral load, as measured by PCR” value ([17]; after a few days) was “reduced and lower than would be expected in the absence of the peptide”, the “Chron's disease flare up outcome” value [18] was “goes back into remission” and the “H3.1 NETosis derived nucleosome levels” value ([19]; LPS in combination with EGF, without inhibitor 641.9 ng/mL, inhibitor concentration not stated) was 254.2 ng/mL. It also gave an H3.1 nucleosomes released ([19]; LPS trigger, 0.1 uM SA Inhibitor, LPS alone 523.2 ng/mL) of 339.4 ng/mL.
“EGF: Epithelial Growth Factor (EGF, Sigma) (NSDSECPLSHDGYCLHDGVCMYIEALDKYACNCVVGYIGERCQYRDLKWWELR; UniProt P01133 971-1023, looked up) [reference compound]” showed a TMPRSS2 relative expression ([7]; LNCaP, 100 ng/ml EGF, 72 hrs) of 62.8% and a TMPRSS2 relative expression ([8]; A549, 100 ng/ml EGF, 72 hrs) of 797%.
For “IL6: IL6 (Merck) used to activate NETosis in response to LPS [reference compound]”, the “level of NETosis” value ([11]; LPS trigger, IL6 0, 10, 50 and 100 ng/mL) was “increased with increasing concentrations of IL6”.
For “IL8: IL8 (Merck) used to activate NETosis in response to LPS [reference compound]”, the “level of NETosis” value ([12]; LPS trigger, IL8 0, 1, 10 and 100 nM) was “increased with increasing concentrations of IL8”.
